Consider 11 compounds from patent US20260274892A1, “MACROCYCLIC BROAD SPECTRUM ANTIBIOTICS” (RQx Pharmaceuticals, Inc., priority 2017, published 2026).

In assay [1] the test system is Methicillin Resistant Staphylococcus aureus strain USA 200. The experiment in a line: Minimum inhibitory concentration (MIC), CLSI broth micro-dilution, S. aureus. Format: cell-based. The following applies: Staphylococcus aureus, MRSA / USA200; Table 6; MRSA USA 200; cation adjusted Mueller Hinton Broth + 0.002% Tween-80; 35° C., 22 hours. The method, then: In vitro antimicrobial activity of each compound was determined by measuring minimal inhibitor concentrations (MICs) using the broth micro-dilution technique as approved by the Clinical and Laboratory Standards Institute (CLSI) (Methods for Dilution Antimicrobial Susceptibility Tests for Bacteria that Grow Aerobically; Approved Standard-Eighth Edition. CLSI document M07-A8. Wayne, PA: Clinical and Laboratroy Standards; 2009). Antibacterial activity was measure against two strains of bacteria: a Methicillin Resistant Staphylococcus aureus strain USA 200, (S. aureus) and Escherichia coli ATCC 25922 (E. coli), a clinically relevant Gram-negative strain. Cells were inoculated onto plates of Trypyticase Soy Agar or Luria Agar respectively and grown at 35° C. for 20 hours. Inocula suspensions were prepared by scraping cells into 1 mL of testing media (cation adjusted Mueller Hinton Broth supplemented with 0.002% v/v Tween-80) and diluting to a final OD600nm of 0.01.
Test compounds were prepared in DMSO at a concentration of 10 mg/mL. In protocol 1, the compound stocks were diluted into testing media at a concentration of 64 µg/ml and serial 2-fold dilutions were made in the same media, in 96-well U bottom microtiter dishes, for a total of 10 compound concentrations. In protocol 2, the compound stocks were diluted into testing media at a concentration of 4 µg/mL and serial 2-fold dilutions were made in the same media, in 96-well U bottom microtiter dishes, for a total of 10 compound concentrations. In protocol 3, compound stocks were diluted into testing media at a concentration of 0.5 μg/mL, with serial 2-fold dilutions conducted as described above. In protocol 4, compound stocks were diluted into testing media at a concentration of […], with serial 2-fold dilutions conducted as described above. Inocula suspensions were added to the 2-fold serial dilutions of test compounds to a final density of GD OD600nm of 0.0005 and incubated at 35° C. for 22 hours.
(In general: Dilution methods test growth across graded concentrations, often in twofold steps.)

Assay [2] has as its system Escherichia coli ATCC 25922. The experiment in a line: Minimum inhibitory concentration (MIC), CLSI broth micro-dilution, E. coli. It is filed as cell-based. The note with it: Escherichia coli, ATCC25922, 22 h. The essentials:
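Colonies grown 20 h at 35° C on Trypticase Soy agar (MRSA) or Luria agar (E. coli) were suspended in cation-adjusted Mueller Hinton broth with 0.002% Tween-80. Suspensions were added at OD600 0.0005 to 10-point twofold compound dilutions, then incubated 22 h at 35° C.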

Setting [3] is: Table 6, cation adjusted Mueller Hinton Broth + 0.002% Tween-80, 35° C.
Where [4] appears, read: Table 7, cation adjusted Mueller Hinton Broth + 0.002% Tween-80, 35° C.

Usually MIC stands for the least concentration at which growth counts as inhibited. `CCCCc1ccc(-c2ccn(-c3ccc(C(=O)N[C@@H](CCN)C(=O)N(C)[C@@H]4C(=O)N[C@@H](C)C(=O)N[C@H](C(=O)NCC#N)Cc5ccc(OCCN)c(c5)-c5cc4ccc5OCCN)c(C)c3)n2)cc1` (racemic) [Compound 201, rac-(8S,11S,14S)-3,18-bis(2-aminoethoxy)-N-(cyanomethyl)-11-methyl-14-[methyl-[rac-(2S)-4-amino-2-[[4-[3-(4-butylphenyl)pyrazol-1-yl]-2-methyl-benzoyl]amino]butanoyl]amino]-10,13-dioxo-9,12-diazatricyclo[13.3.1.12,6]icosa-1(18),2(20),3,5,15(19),16-hexaene-8-carboxamide]: the MIC stood at 0.062 µM in assay [1] and 0.42 µM in assay [2] (setting [3]).
For `Cc1cc(-c2ccc(S(F)(F)(F)(F)F)cc2)ccc1C(=O)N[C@@H](CCN)C(=O)N(C)[C@@H]1C(=O)N[C@@H](C)C(=O)N[C@H](C(=O)NCC#N)Cc2ccc(OCCN)c(c2)-c2cc1ccc2OCCN` (racemic) [Compound 202, rac-(8S,11S,14S)-3,18-bis(2-aminoethoxy)-N-(cyanomethyl)-11-methyl-14-[methyl-[rac-(2S)-4-amino-2-[[2-methyl-4-[4-(pentafluoro-lambda6-sulfanyl)phenyl]benzoyl]amino]butanoyl]amino]-10,13-dioxo-9,12-diazatricyclo[13.3.1.12,6]icosa-1(18),2(20),3,5,15(19),16-hexaene-8-carboxamide], the minimal inhibitory concentration (MIC) in assay [1] turned out to be 0.023 µM; in assay [2] (setting [3]), 0.37 µM.
Taken in the same sequence, the figures for `Cc1cc(-c2ccc(C(C)(C)C)cc2)ccc1C(=O)N[C@@H](CCN)C(=O)N(C)[C@@H]1C(=O)N[C@@H](C)C(=O)N[C@H](C(=O)NCC#N)Cc2ccc(OCCN)c(c2)-c2cc1ccc2OCCN` (racemic) [Compound 203, rac-(8S,11S,14S)-3,18-bis(2-aminoethoxy)-N-(cyanomethyl)-11-methyl-14-[methyl-[rac-(2S)-4-amino-2-[[4-(4-tert-butylphenyl)-2-methyl-benzoyl]amino]butanoyl]amino]-10,13-dioxo-9,12-diazatricyclo[13.3.1.12,6]icosa-1(18),2(20),3,5,15(19),16-hexaene-8-carboxamide] were 0.031 µM and 0.13 µM.
Taken in the same sequence, the figures for `CCCCCCc1ncc(-c2ccc(C(=O)N[C@@H](CCN)C(=O)N(C)[C@@H]3C(=O)N[C@@H](C)C(=O)N[C@H](C(=O)NCC#N)Cc4ccc(OCCN)c(c4)-c4cc3ccc4OCCN)c(C)c2)cn1` (racemic) [Compound 204, rac-(8S,11S,14S)-3,18-bis(2-aminoethoxy)-N-(cyanomethyl)-11-methyl-14-[methyl-[rac-(2S)-4-amino-2-[[4-(2-hexylpyrimidin-5-yl)-2-methyl-benzoyl]amino]butanoyl]amino]-10,13-dioxo-9,12-diazatricyclo[13.3.1.12,6]icosa-1(18),2(20),3,5,15(19),16-hexaene-8-carboxamide] were 0.032 µM and 2.1 µM.
Taken in the same sequence, the figures for `CCCCCc1ccc(-c2ccc(C(=O)N[C@@H](CCN)C(=O)N(C)[C@@H]3C(=O)N[C@@H](C)C(=O)N[C@H](C(=O)NCC#N)Cc4ccc(OCCN)c(c4)-c4cc3ccc4OCCN)c(C)n2)cc1` (racemic) [Compound 205, rac-(8S,11S,14S)-3,18-bis(2-aminoethoxy)-N-(cyanomethyl)-11-methyl-14-[methyl-[rac-(2S)-4-amino-2-[[2-methyl-6-(4-pentylphenyl)pyridine-3-carbonyl]amino]butanoyl]amino]-10,13-dioxo-9,12-diazatricyclo[13.3.1.12,6]icosa-1(18),2(20),3,5,15(19),16-hexaene-8-carboxamide] were 0.012 µM and 0.066 µM.
Consider `Cc1nc(-c2ccc(C(C)(C)C)cc2)ccc1C(=O)N[C@@H](CCN)C(=O)N(C)[C@@H]1C(=O)N[C@@H](C)C(=O)N[C@H](C(=O)NCC#N)Cc2ccc(OCCN)c(c2)-c2cc1ccc2OCCN` (racemic) [Compound 206, rac-(8S,11S,14S)-3,18-bis(2-aminoethoxy)-N-(cyanomethyl)-11-methyl-14-[methyl-[rac-(2S)-4-amino-2-[[6-(4-tert-butylphenyl)-2-methyl-pyridine-3-carbonyl]amino]butanoyl]amino]-10,13-dioxo-9,12-diazatricyclo[13.3.1.12,6]icosa-1(18),2(20),3,5,15(19),16-hexaene-8-carboxamide], for which the MIC in assay [1] was 0.025 µM; in assay [2] (setting [3]) it was 0.13 µM.
Taken in the same sequence, the figures for `CCCCc1ccc(-c2ccc(C(=O)N[C@@H](CCN)C(=O)N(C)[C@@H]3C(=O)N[C@@H](C)C(=O)N[C@H](C(=O)NCC#N)Cc4ccc(OCCN)c(c4)-c4cc3ccc4OCCN)c(C)n2)cc1` (racemic) [Compound 207, rac-(8S,11S,14S)-3,18-bis(2-aminoethoxy)-N-(cyanomethyl)-11-methyl-14-[methyl-[rac-(2S)-4-amino-2-[[6-(4-butylphenyl)-2-methyl-pyridine-3-carbonyl]amino]butanoyl]amino]-10,13-dioxo-9,12-diazatricyclo[13.3.1.12,6]icosa-1(18),2(20),3,5,15(19),16-hexaene-8-carboxamide] were 0.017 µM and 0.1 µM.
Turning to `Cc1nc(-c2ccc(C(C)(C)C)cc2)nc(C)c1C(=O)N[C@@H](CCN)C(=O)N(C)[C@@H]1C(=O)N[C@@H](C)C(=O)N[C@H](C(=O)NCC#N)Cc2ccc(OCCN)c(c2)-c2cc1cc(OCCN)c2O` [Compound 583, (8S,11S,14S)-14-[[(2S)-4-amino-2-[[2-(4-tert-butylphenyl)-4,6-dimethyl-pyrimidine-5-carbonyl]amino]butanoyl]-methyl-amino]-3,17-bis(2-aminoethoxy)-N-(cyanomethyl)-18-hydroxy-11-methyl-10,13-dioxo-9,12-diazatricyclo[13.3.1.12,6]icosa-1(18),2(20),3,5,15(19),16-hexaene-8-carboxamide], the minimum inhibitory concentration (MIC) in assay [2] (setting [4]) came out at 0.17 µM.
Take `COc1c(NCCN)cc2cc1-c1cc(ccc1O)C[C@@H](C(=O)NCC#N)NC(=O)[C@H](C)NC(=O)[C@H]2N(C)C(=O)[C@H](CCN)NC(=O)c1c(C)nc(-c2ccc(C(C)(C)C)cc2)nc1C` [Compound 630, (8S,11S,14S)-14-[[(2S)-4-amino-2-[[2-(4-tert-butylphenyl)-4,6-dimethyl-pyrimidine-5-carbonyl]amino]butanoyl]-methyl-amino]-17-(2-aminoethylamino)-N-(cyanomethyl)-3-hydroxy-18-methoxy-11-methyl-10,13-dioxo-9,12-diazatricyclo[13.3.1.12,6]icosa-1(18),2(20),3,5,15(19),16-hexaene-8-carboxamide]: the MIC in assay [2] (setting [4]) is 0.25 µM.
For the compound `Cc1nc(-c2ccc(C(C)(C)C)cc2)nc(C)c1C(=O)N[C@@H](CCN)C(=O)N(C)[C@@H]1C(=O)N[C@@H](C)C(=O)N[C@H](C(=O)NCC#N)Cc2ccc(O)c(c2)-c2cc1cc(OCCN)c2O` [Compound 632, (8S,11S,14S)-14-[[(2S)-4-amino-2-[[2-(4-tert-butylphenyl)-4,6-dimethyl-pyrimidine-5-carbonyl]amino]butanoyl]-methyl-amino]-17-(2-aminoethoxy)-N-(cyanomethyl)-3,18-dihydroxy-11-methyl-10,13-dioxo-9,12-diazatricyclo[13.3.1.12,6]icosa-1(18),2(20),3,5,15(19),16-hexaene-8-carboxamide], the MIC in assay [2] (setting [4]) amounted to 0.5 µM.
For `Cc1nc(-c2ccc(C(C)(C)C)cc2)nc(C)c1C(=O)N[C@@H](CCN)C(=O)N(C)[C@@H]1C(=O)N[C@@H](C)C(=O)N[C@H](C(=O)NCC#N)Cc2ccc(O)c(c2)-c2cc1cc(OCCN)c2OCCN` [Compound 633, (8S,11S,14S)-14-[[(2S)-4-amino-2-[[2-(4-tert-butylphenyl)-4,6-dimethyl-pyrimidine-5-carbonyl]amino]butanoyl]-methyl-amino]-17,18-bis(2-aminoethoxy)-N-(cyanomethyl)-3-hydroxy-11-methyl-10,13-dioxo-9,12-diazatricyclo[13.3.1.12,6]icosa-1(18),2(20),3,5,15(19),16-hexaene-8-carboxamide], the minimal inhibitory concentration (MIC) in assay [2] (setting [4]) came out at 0.047 µM.
